In patent US20250382361A1, “AFFIBODIES, HYDROGELS CONTAINING AFFIBODIES, AND USES THEREOF” (University of Oregon, priority 2024, published 2025):
Like-named read-outs stand apart in the source and are kept apart here.

Experiments:
HUVECs [1] = experiment: Endothelial tube formation assay; assay type: cell-based, human
Description: Human umbilical vein endothelial cells (HUVECs) were seeded in tissue culture flasks at 2,500 cells/cm^2 and cultured in complete Endothelial Growth Medium (Lonza, Walkersville, MD) at 37° C. and 5% CO2. Upon reaching 60-80% confluence, cells were washed with PBS, trypsinized, and seeded at 5,000 or 15,000 cells/well onto 96-well plates pre-coated with 100 μL of Cultrex Reduced Growth Factor Basement Membrane Extract (RGF BME, R&D Systems). HUVECs were allowed to adhere to the coated surface for 2 hours. […] Cells were cultured for 48 hours on a BioTek Lionheart FX automated microscope (Agilent Technologies, Santa Clara, CA) at 37° C. and 5% CO2 with 4× phase contrast time lapse images taken at 4, 8, 12, 16, 20, 24, and 48 hours. Total network length and branching of HUVEC networks were measured from images using the Angiogenesis Analyzer plugin for ImageJ.
Responses of HUVECs to each of the three growth factors of interest were first studied.

VEGF165 = target: T1, VEGF165 (Homo sapiens, UniProt P15692); settings: cited from earlier work
T1 construct: biotin (label as supplied by the vendor); purchased Acro Biosystems
T1 sequence (P15692 1-191 isoform P15692-4): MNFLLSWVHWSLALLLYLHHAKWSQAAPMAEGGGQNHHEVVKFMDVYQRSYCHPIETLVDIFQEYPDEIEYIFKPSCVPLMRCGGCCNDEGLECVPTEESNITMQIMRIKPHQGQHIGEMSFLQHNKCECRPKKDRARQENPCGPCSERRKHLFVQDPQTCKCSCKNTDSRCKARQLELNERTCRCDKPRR

integrin α5β1 = integrin α5β1 (Homo sapiens, UniProt P05556+P08648); settings: cited from earlier work
antithrombin-III = antithrombin-III (Homo sapiens, UniProt P01008); settings: cited from earlier work
[2] = target: fibroblast growth factor-1 (Homo sapiens, UniProt P05230); settings: cited from earlier work
HUVECs [3] = experiment: VEGF bioactivity HUVEC proliferation assay (CellTiter-Glo); assay type: cell-based, human; settings: VEGF for 96 hours
[4] = target: T2, Recombinant human BMP-2 (bone morphogenetic protein 2) (human, UniProt P12643 283-396, biotinylated with Sulfo-NHS-Biotin (bBMP-2) in flow cytometry and BLI); experiment: flow cytometry, yeast-displayed affibody titrated with bBMP-2 0.5-1000 nM
T2 construct: Bought protein; also called bBMP-2; bBMP
Text: Yeast clones with names starting with the letter A were identified using the gating approach in FIG. 2A, and yeast clones with names starting with B were identified using the gate approach in FIG. 2B. The affibodies chosen for further characterization are boxed in the legend.

[5] = target: T3, Recombinant VEGF165 (vascular endothelial growth factor) (UniProt P15692-4 27-191, biotinylated (bVEGF) in flow cytometry and BLI); experiment: biolayer interferometry, 25 nM bVEGF on streptavidin probes, soluble affibody 15.625-125 nM
T3 construct: also called VEGF-A (165); bVEGF
Description: All samples were diluted in PBS solution containing 0.05% Tween-20® (PBST). […] Dissociation constants were obtained from a 1:1 global curve fitting of the data. n=4.

[6] = target: PDGF receptor beta (PDGFRβ) on NIH/3T3-Luc cells (UniProt P05622 32-1098, limits assumed); experiment: cell-based or functional assay
NIH/3T3-Luc cells = experiment: PDGF bioactivity luciferase reporter assay; assay type: cell-based; settings: PDGF for 5 hours
Description: NIH/3T3 fibroblast cells (ATCC) were thawed, seeded at 10,000 cell/cm^2, and expanded in growth medium consisting of DMEM containing 10% (v/v) fetal bovine serum (R&D Systems, Minneapolis, MN). Cultures were routinely maintained at 37° C. and 5% CO2 and passaged at 60-70% confluence. After three passages of expansion, NIH/3T3 cells were grown in Eagle's Minimal Essential Medium (EMEM, ATCC) for a single passage prior to transfection. Transfection mixtures were prepared according to the manufacturer's protocols. Briefly, 2500 ng of luciferase reporter plasmid pGL4.33 [luc2P/SRE/Hygro] […]
NIH/3T3-Luc cells were seeded at 31,250 cells/cm^2 and incubated in 100 μL of growth medium overnight in 96 well plates. […] Luminescence was then measured using SpectraMax 13 plate reader (Molecular Devices, San Jose, CA).
PDGF bioactivity was assessed using NIH/3T3 cells transfected with a firefly luciferase gene reporter plasmid that links multiple ERK1/2 signaling pathways, including PDGFRβ signaling, to luciferase expression through a serum response element under the regulation of ERK1/2 (FIG. 30A). […] Firefly luciferase expression was assessed via the conversion of 5′-fluoroluciferin to oxyfluoroluciferin, which generates a stable luminescent output correlated to firefly luciferase concentration. […]

T2 sequence (P12643 283-396 limits assumed): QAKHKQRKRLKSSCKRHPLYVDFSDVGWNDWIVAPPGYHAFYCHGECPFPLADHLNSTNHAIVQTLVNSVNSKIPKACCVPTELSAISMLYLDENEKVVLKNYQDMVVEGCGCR
fibroblast growth factor-1, sequence (P05230 whole entry, species assumed): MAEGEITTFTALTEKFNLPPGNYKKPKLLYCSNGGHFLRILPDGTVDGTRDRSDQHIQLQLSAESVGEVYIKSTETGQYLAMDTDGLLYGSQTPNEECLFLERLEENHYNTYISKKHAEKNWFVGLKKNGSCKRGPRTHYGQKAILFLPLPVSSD
antithrombin-III, sequence (P01008 33-464, species assumed): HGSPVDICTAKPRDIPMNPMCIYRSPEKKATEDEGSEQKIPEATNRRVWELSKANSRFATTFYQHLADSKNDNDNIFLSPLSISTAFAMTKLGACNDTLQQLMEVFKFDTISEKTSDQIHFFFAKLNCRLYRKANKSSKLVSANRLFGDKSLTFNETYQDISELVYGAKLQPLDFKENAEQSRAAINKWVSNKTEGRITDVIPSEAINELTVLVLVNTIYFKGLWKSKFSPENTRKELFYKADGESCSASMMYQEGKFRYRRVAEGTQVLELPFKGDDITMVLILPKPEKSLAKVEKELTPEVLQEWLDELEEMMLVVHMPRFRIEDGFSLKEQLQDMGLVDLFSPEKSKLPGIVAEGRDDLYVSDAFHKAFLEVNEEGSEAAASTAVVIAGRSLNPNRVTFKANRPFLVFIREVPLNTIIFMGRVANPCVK
PDGF receptor beta (PDGFRβ) on NIH/3T3-Luc cells, sequence (P05622 32-1098 limits assumed): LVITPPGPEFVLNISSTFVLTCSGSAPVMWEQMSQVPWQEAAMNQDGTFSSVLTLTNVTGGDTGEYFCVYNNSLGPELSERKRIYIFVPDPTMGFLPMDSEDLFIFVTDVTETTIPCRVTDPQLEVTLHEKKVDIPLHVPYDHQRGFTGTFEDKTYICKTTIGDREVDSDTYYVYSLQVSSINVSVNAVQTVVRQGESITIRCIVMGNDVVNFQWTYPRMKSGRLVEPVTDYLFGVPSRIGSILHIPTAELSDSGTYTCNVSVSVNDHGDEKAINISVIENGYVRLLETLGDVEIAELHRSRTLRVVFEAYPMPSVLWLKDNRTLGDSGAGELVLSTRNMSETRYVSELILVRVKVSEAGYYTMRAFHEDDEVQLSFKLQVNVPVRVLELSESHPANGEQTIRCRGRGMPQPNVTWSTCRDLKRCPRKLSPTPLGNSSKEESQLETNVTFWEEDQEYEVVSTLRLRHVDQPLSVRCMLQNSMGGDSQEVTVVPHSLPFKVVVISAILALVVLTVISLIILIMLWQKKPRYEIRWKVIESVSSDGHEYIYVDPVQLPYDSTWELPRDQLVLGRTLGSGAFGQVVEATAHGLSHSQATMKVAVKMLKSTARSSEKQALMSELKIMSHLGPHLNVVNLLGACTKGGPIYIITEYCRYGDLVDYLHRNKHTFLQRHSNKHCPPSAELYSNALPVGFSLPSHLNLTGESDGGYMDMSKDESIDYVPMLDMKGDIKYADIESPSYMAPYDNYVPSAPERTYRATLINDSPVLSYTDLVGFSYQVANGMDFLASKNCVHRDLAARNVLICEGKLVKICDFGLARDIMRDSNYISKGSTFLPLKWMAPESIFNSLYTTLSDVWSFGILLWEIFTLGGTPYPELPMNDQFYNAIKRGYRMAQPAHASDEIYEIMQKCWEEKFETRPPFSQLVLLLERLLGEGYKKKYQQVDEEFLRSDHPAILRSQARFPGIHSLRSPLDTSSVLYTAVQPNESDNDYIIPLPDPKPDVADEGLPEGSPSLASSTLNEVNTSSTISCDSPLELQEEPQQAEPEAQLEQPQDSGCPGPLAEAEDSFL
integrin α5β1, sequence (P08648 42-894 limits assumed): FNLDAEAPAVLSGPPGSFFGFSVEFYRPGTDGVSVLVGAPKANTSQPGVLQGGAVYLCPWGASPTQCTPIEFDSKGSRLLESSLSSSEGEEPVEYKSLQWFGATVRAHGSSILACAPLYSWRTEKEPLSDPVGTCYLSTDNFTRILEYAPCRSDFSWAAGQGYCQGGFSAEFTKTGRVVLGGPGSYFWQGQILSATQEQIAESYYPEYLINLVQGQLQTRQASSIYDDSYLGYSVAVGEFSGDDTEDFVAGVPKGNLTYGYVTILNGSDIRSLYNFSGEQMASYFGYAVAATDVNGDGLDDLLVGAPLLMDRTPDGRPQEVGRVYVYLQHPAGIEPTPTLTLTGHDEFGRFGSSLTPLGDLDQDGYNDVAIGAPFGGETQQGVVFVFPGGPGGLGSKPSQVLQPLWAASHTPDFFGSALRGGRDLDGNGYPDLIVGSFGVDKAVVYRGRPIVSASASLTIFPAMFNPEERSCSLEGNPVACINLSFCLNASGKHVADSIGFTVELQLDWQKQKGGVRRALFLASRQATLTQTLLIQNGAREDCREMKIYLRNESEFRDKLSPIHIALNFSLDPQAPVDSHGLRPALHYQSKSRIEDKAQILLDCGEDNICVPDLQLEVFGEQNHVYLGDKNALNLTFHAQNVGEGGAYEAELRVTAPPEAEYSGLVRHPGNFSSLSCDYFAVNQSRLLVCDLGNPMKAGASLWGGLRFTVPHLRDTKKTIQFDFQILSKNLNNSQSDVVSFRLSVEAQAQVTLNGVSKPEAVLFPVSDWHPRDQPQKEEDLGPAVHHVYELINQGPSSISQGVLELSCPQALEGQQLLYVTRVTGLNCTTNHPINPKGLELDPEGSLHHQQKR
integrin α5β1, sequence (P08648 895-1049 limits assumed): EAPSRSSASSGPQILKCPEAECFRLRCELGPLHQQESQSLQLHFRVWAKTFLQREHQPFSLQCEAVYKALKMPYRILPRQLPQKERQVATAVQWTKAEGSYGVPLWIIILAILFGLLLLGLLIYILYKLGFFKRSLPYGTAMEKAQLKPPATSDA
integrin α5β1, sequence (P05556 21-798): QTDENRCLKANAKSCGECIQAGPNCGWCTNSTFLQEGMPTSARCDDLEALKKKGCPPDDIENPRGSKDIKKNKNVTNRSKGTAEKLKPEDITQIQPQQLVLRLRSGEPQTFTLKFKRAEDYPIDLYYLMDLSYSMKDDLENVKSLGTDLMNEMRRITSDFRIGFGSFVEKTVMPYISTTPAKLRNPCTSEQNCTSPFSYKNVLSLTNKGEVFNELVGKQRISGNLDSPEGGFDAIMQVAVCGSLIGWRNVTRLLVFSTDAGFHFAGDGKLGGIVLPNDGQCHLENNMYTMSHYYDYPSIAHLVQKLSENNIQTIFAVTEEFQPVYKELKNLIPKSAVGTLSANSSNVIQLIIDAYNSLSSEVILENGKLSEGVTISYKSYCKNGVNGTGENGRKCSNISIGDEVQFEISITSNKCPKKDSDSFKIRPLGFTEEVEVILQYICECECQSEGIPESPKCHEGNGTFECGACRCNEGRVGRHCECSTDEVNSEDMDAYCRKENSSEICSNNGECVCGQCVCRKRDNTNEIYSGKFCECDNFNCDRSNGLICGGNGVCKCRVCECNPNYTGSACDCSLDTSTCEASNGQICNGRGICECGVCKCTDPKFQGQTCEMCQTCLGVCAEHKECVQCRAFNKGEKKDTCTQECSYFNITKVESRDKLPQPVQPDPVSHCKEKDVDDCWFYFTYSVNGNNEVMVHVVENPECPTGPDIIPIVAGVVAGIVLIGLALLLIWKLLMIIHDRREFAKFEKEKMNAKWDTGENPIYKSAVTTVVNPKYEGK

FGF-2: Recombinant FGF-2 (PeproTech)
HUVEC network length and branching (HUVECs [1]; 5, 10, or 50 ng/mL): limited impact

heparin
Kd (VEGF165): 0.165 µM | Kd (integrin α5β1): 2.04 µM | Kd (antithrombin-III): 0.163 µM | Kd [2]: 0.461 µM

VEGF
maximum response (HUVECs [3]): approximately 36,000 relative luminescent units (RLUs) | HUVEC network length and branching (HUVECs [1]): limited impact

B1: Moderate Affinity BMP-2 affibody A2-2 (SEQ ID NO: 2), yeast-displayed (designed binder)
chain: AEAKYAKEQFNAYVVIFYLPNLTASQKAAFVDALSNDPSQSSELLSEAKKLNDSQAPK
EC50 (read off the curve) [4]: ~0.02 µM

B2: BMP-2 affibody A3-2 (SEQ ID NO: 9), yeast-displayed (designed binder)
chain: AEAKYAKEQFNAYVVIFYLPNLTASQKAAFVDALSNDPSQSSELLSEAKKLNDSQAPK
EC50 (read off the curve) [4]: ~0.01 µM

B3: Moderate Affinity BMP-2 Affibody, soluble, with hexahistidine tag and C-terminal cysteine (SEQ ID NO: 72) (designed binder)
chain: AEAKYAKEQFNAYVVIFYLPNLTASQKAAFVDALSNDPSQSSELLSEAKKLNDSQAPKHHHHHHC
notes: E. coli-expressed; also called A2-2
binding result [5]: no binding (tested: 125 nM)

B4: Recombinant human PDGF-BB (platelet-derived growth factor) (ligand, UniProt P01127 82-190, looked up)
chain: SLGSLTIAEPAMIAECKTRTEVFEISRRLIDRTNANFLVWPPCVEVQRCSGCCNNRNVQCRPTQVQLRPVQVRKIEIVRKKPIFKKATVTLEDHLACKCETVAAARPVT
modifications: biotinylated (bPDGF) in flow cytometry and off-target BLI; not biotinylated in the Ni-NTA BLI
50% effective dose (EC50), luminescence of NIH/3T3-Luc reporter cells [6]: 2.94 ng/mL

B5: PDGF: Recombinant PDGF-BB (PeproTech) (protein)
chain: SLGSLTIAEPAMIAECKTRTEVFEISRRLIDRTNANFLVWPPCVEVQRCSGCCNNRNVQCRPTQVQLRPVQVRKIEIVRKKPIFKKATVTLEDHLACKCETVAAARPVT
maximal response (NIH/3T3-Luc cells): 23,655 relative luminescent units (RLUs) | HUVEC network length and branching (HUVECs [1]; 5, 10, or 50 ng/mL): limited impact
